# Measurements taken from ChEMBL document CHEMBL3352542, “Synthesis, biological evaluation and molecular modeling study of 2-(1,3,4-thiadiazolyl-thio and 4-methyl-thiazolyl-thio)-quinazolin-4-ones as a new class of DHFR inhibitors” (Bioorg Med Chem Lett, 2014).
# Columns and labels:
# Candida albicans = test: Antimicrobial activity against Candida albicans assessed as inhibition zone at 200 ug/disk after 24 hrs by disc-diffusion method; type: functional; details: read-out: IZ
# HT-29 = test: Growth inhibition of human HT-29 cells at 10 uM after 48 hrs; type: functional; details: HT-29, 48 h, read-out: GI
# [1] = Growth inhibition of human HCT116 cells at 10 uM after 48 hrs; type: functional; details: HCT-116, 48 h, read-out: GI
# [2] = Growth inhibition of human HOP92 cells at 10 uM after 48 hrs; type: functional; details: HOP-92, 48 h, read-out: GI
# HL-60(TB) = test: Growth inhibition of human HL-60(TB) cells at 10 uM after 48 hrs; type: functional; details: HL-60, 48 h, read-out: GI
# [3] = Growth inhibition of human HCC2998 cells at 10 uM after 48 hrs; type: functional; details: HCC 2998, 48 h, read-out: GI
# [4] = Growth inhibition of human RPMI8226 cells at 10 uM after 48 hrs; type: functional; details: RPMI-8226, 48 h, read-out: GI
# CCRF-CEM = test: Growth inhibition of human CCRF-CEM cells at 10 uM after 48 hrs; type: functional; details: read-out: GI
# [5] = Growth inhibition of human MOLT4 cells at 10 uM after 48 hrs; type: functional; details: MOLT-4, 48 h, read-out: GI
# [6] = Growth inhibition of human UACC257 cells at 10 uM after 48 hrs; type: functional; details: UACC-257, 48 h, read-out: GI
# [7] = Growth inhibition of human RXF393 cells at 10 uM after 48 hrs; type: functional; details: RXF 393, 48 h, read-out: GI
# CAKI-1 = test: Growth inhibition of human CAKI-1 cells at 10 uM after 48 hrs; type: functional; details: CAKI-1, 48 h, read-out: GI
# [8] = Growth inhibition of human NCI-ADR-RES cells at 10 uM after 48 hrs; type: functional; details: read-out: GI
# 786-0 = test: Growth inhibition of human 786-0 cells at 10 uM after 48 hrs; type: functional; details: 786-0, 48 h, read-out: GI
# [9] = Growth inhibition of human SF295 cells at 10 uM after 48 hrs; type: functional; details: SF-295, 48 h, read-out: GI
# Bacillus subtilis = test: Antimicrobial activity against Bacillus subtilis assessed as inhibition zone at 200 ug/disk after 24 hrs by disc-diffusion method; type: functional; details: read-out: IZ
# M14 = test: Growth inhibition of human M14 cells at 10 uM after 48 hrs; type: functional; details: M14, 48 h, read-out: GI
# U-251 = test: Growth inhibition of human U251 cells at 10 uM after 48 hrs; type: functional; details: U-251, 48 h, read-out: GI
# [10] = Growth inhibition of human OVCAR8 cells at 10 uM after 48 hrs; type: functional; details: OVCAR-8, 48 h, read-out: GI
# [11] = Growth inhibition of human Hs 578T cells at 10 uM after 48 hrs; type: functional; details: read-out: GI
# K562 = test: Growth inhibition of human K562 cells at 10 uM after 48 hrs; type: functional; details: K562, 48 h, read-out: GI
# SNB-19 = test: Growth inhibition of human SNB19 cells at 10 uM after 48 hrs; type: functional; details: SNB-19, 48 h, read-out: GI
# SK-MEL-5 = test: Growth inhibition of human SK-MEL-5 cells at 10 uM after 48 hrs; type: functional; details: SK-MEL-5, 48 h, read-out: GI
# [12] = Growth inhibition of human BT549 cells at 10 uM after 48 hrs; type: functional; details: BT-549, 48 h, read-out: GI
# NCI-H460 = test: Growth inhibition of human NCI-H460 cells at 10 uM after 48 hrs; type: functional; details: NCI-H460, 48 h, read-out: GI
# A549 = test: Growth inhibition of human A549 cells at 10 uM after 48 hrs; type: functional; details: A549, 48 h, read-out: GI
# Escherichia coli = test: Antimicrobial activity against Escherichia coli assessed as inhibition zone at 200 ug/disk after 24 hrs by disc-diffusion method; type: functional; details: read-out: IZ
# KM12 = test: Growth inhibition of human KM12 cells at 10 uM after 48 hrs; type: functional; details: KM12, 48 h, read-out: GI
# [13] = Growth inhibition of human UACC62 cells at 10 uM after 48 hrs; type: functional; details: UACC-62, 48 h, read-out: GI
# [14] = Growth inhibition of human OVCAR4 cells at 10 uM after 48 hrs; type: functional; details: OVCAR-4, 48 h, read-out: GI
# MDA-MB-231 = test: Growth inhibition of human MDA-MB-231 cells at 10 uM after 48 hrs; type: functional; details: MDA-MB-231, 48 h, read-out: GI
# A498 = test: Growth inhibition of human A498 cells at 10 uM after 48 hrs; type: functional; details: A498, 48 h, read-out: GI
# NCI-H23 = test: Growth inhibition of human NCI-H23 cells at 10 uM after 48 hrs; type: functional; details: NCI-H23, 48 h, read-out: GI
# T47D = test: Growth inhibition of human T47D cells at 10 uM after 48 hrs; type: functional; details: read-out: GI
# NCI-H522 = test: Growth inhibition of human NCI-H522 cells at 10 uM after 48 hrs; type: functional; details: NCI-H522, 48 h, read-out: GI
# MDA-MB-435 = test: Growth inhibition of human MDA-MB-435 cells at 10 uM after 48 hrs; type: functional; details: MDA-MB-435, 48 h, read-out: GI
# MCF7 = test: Growth inhibition of human MCF7 cells at 10 uM after 48 hrs; type: functional; details: MCF7, 48 h, read-out: GI
# [15] = Growth inhibition of human PC3 cells at 10 uM after 48 hrs; type: functional; details: PC-3, 48 h, read-out: GI
# TK-10 = test: Growth inhibition of human TK10 cells at 10 uM after 48 hrs; type: functional; details: TK-10, 48 h, read-out: GI
# MDA-MB-468 = test: Growth inhibition of human MDA-MB-468 cells at 10 uM after 48 hrs; type: functional; details: MDA-MB-468, 48 h, read-out: GI
# Dihydrofolate reductase = biological target: T1, Dihydrofolate reductase (Bos taurus, UniProt P00376); test: Inhibition of bovine liver DHFR
# T1 sequence (P00376 whole entry): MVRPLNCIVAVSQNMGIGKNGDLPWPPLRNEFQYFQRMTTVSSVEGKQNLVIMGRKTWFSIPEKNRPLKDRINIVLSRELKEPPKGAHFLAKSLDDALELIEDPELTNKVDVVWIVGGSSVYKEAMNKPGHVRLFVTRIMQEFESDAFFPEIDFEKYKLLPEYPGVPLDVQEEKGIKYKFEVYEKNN
# [16] = Growth inhibition of human LOXIMVI cells at 10 uM after 48 hrs; type: functional; details: LOX IMVI, read-out: GI
# Pseudomonas aeruginosa = test: Antimicrobial activity against Pseudomonas aeruginosa assessed as inhibition zone at 200 ug/disk after 24 hrs by disc-diffusion method; type: functional; details: read-out: IZ
# Staphylococcus aureus = test: Antimicrobial activity against Staphylococcus aureus assessed as inhibition zone at 200 ug/disk after 24 hrs by disc-diffusion method; type: functional; details: read-out: IZ
# SN12C = test: Growth inhibition of human SN12C cells at 10 uM after 48 hrs; type: functional; details: read-out: GI
# [17] = Growth inhibition of human HCT15 cells at 10 uM after 48 hrs; type: functional; details: HCT-15, 48 h, read-out: GI
# NCI-H226 = test: Growth inhibition of human NCI-H226 cells at 10 uM after 48 hrs; type: functional; details: NCI-H226, 48 h, read-out: GI
# [18] = Growth inhibition of human OVCAR5 cells at 10 uM after 48 hrs; type: functional; details: OVCAR-5, 48 h, read-out: GI
# ACHN = test: Growth inhibition of human ACHN cells at 10 uM after 48 hrs; type: functional; details: read-out: GI
# SW-620 = test: Growth inhibition of human SW620 cells at 10 uM after 48 hrs; type: functional; details: SW-620, 48 h, read-out: GI
# [19] = Growth inhibition of human UO31 cells at 10 uM after 48 hrs; type: functional; details: UO-31, 48 h, read-out: GI
compound,measurement,setting,value
Cc1nc(N)sc1Sc1nc2ccc(Cl)cc2c(=O)n1-c1ccc(Oc2ccccc2)cc1,zone of inhibition at 200 µg/disc,Candida albicans,8 mm
same,inhibition of growth at 10 µM,HT-29,44.1%
same,inhibition of growth at 10 µM,[1],66.7%
same,inhibition of growth at 10 µM,[2],25.6%
same,inhibition of growth at 10 µM,HL-60(TB),40.6%
same,inhibition of growth at 10 µM,[3],26%
same,inhibition of growth at 10 µM,[4],32%
same,inhibition of growth at 10 µM,CCRF-CEM,58.5%
same,inhibition of growth at 10 µM,[5],55.7%
same,inhibition of growth at 10 µM,[6],24.3%
same,inhibition of growth at 10 µM,[7],13.4%
same,inhibition of growth at 10 µM,CAKI-1,26.5%
same,inhibition of growth at 10 µM,[8],30.1%
same,inhibition of growth at 10 µM,786-0,31.5%
same,inhibition of growth at 10 µM,[9],32.2%
same,zone of inhibition at 200 µg/disc,Bacillus subtilis,8 mm
same,inhibition of growth at 10 µM,M14,23.4%
same,inhibition of growth at 10 µM,U-251,22.8%
same,inhibition of growth at 10 µM,[10],24.9%
same,inhibition of growth at 10 µM,[11],18.1%
same,inhibition of growth at 10 µM,K562,25.7%
same,inhibition of growth at 10 µM,SNB-19,30.7%
same,inhibition of growth at 10 µM,SK-MEL-5,23.9%
same,inhibition of growth at 10 µM,[12],36.8%
same,inhibition of growth at 10 µM,NCI-H460,18%
same,inhibition of growth at 10 µM,A549,29.8%
same,zone of inhibition at 200 µg/disc,Escherichia coli,8 mm
same,inhibition of growth at 10 µM,KM12,20.2%
same,inhibition of growth at 10 µM,[13],36.1%
same,inhibition of growth at 10 µM,[14],59.1%
same,inhibition of growth at 10 µM,MDA-MB-231,10.7%
same,inhibition of growth at 10 µM,A498,60.2%
same,inhibition of growth at 10 µM,NCI-H23,26%
same,inhibition of growth at 10 µM,T47D,24.5%
same,inhibition of growth at 10 µM,NCI-H522,14.7%
same,inhibition of growth at 10 µM,MDA-MB-435,11.9%
same,inhibition of growth at 10 µM,MCF7,12.6%
same,inhibition of growth at 10 µM,[15],51.1%
same,inhibition of growth at 10 µM,TK-10,11.1%
same,inhibition of growth at 10 µM,MDA-MB-468,23.4%
same,IC50,Dihydrofolate reductase,1000 nM
same,inhibition of growth at 10 µM,[16],24.5%
same,zone of inhibition at 200 µg/disc,Pseudomonas aeruginosa,8 mm
same,zone of inhibition at 200 µg/disc,Staphylococcus aureus,8 mm
same,inhibition of growth at 10 µM,SN12C,26.1%
same,inhibition of growth at 10 µM,[17],44.6%
same,inhibition of growth at 10 µM,NCI-H226,13.6%
same,inhibition of growth at 10 µM,[18],12.1%
same,inhibition of growth at 10 µM,ACHN,21.5%
same,inhibition of growth at 10 µM,SW-620,33.9%
same,inhibition of growth at 10 µM,[19],38.3%
